Several values for one entry are separate records, joined by “and”; a condition that tells them apart may be missing. Identical values can stand only once.
Experiments:
[1] = test system: Burkholderia cepacia; assay: Kinetic resolution by Lipase PS from Pseudomonas cepacia, catalyzed acylation by using Phenyl acetate
[2] = test system: Burkholderia cepacia; assay: Kinetic resolution by Lipase PS from Pseudomonas cepacia, catalyzed acylation by using Succinic anhydride
[3] = test system: Burkholderia cepacia; assay: Kinetic resolution by Lipase PS from Pseudomonas cepacia, catalyzed acylation by using Isopropenyl acetate
[4] = test system: Burkholderia cepacia; assay: Kinetic resolution by Lipase PS from Pseudomonas cepacia, catalyzed acylation by using Vinyl acetate

SMILES | TIME [1] | TIME [2] [h] | TIME [3] [h] | TIME [4] [h]
CNC(=O)C[C@@H](CO)COCc1ccccc1 | 12 h | – | – | –
CN(C)C(=O)C[C@H](CO)COCc1ccccc1 | 2 h | 8 | – | –
O=C(C[C@@H](CO)COCc1ccccc1)NCc1ccccc1 | 10 h | – | – | –
CCN(CC)C(=O)C[C@H](CO)COCc1ccccc1 | 3 h and 2 h | 4 | 9 | 2
CCNC(=O)C[C@@H](CO)COCc1ccccc1 | 1 h | 5 | – | –

From ChEMBL document CHEMBL1134882, “Preparation of chiral 4-benzyloxymethyldihydrofuran-2-one using lipase-catalyzed kinetic resolution: synthesis of (-)-virginiae butanolide C (VB C)” (Bioorg Med Chem Lett, 2002)
